± gives the expanded uncertainty stated by the source.

Series [1] is described as follows: refractive index (Na D-line) (dimensionless). The following applies: 101.3 kPa, Liquid, Standard Abbe refractometry.
For series [2] the following is noted: 101.3 kPa, Liquid, Oscillating disk viscometry.

Turning to `NCCNCCO` [N-(2-aminoethyl)ethanolamine], the refractive index in series [1] (293.15 K) stood at 1.4856 ± 0.0021; in series [1] (298.15 K) it was 1.4842 ± 0.0021; in series [1] (303.15 K) it was 1.4827 ± 0.0022; in series [1] (308.15 K), 1.481 ± 0.0022; in series [1] (313.15 K), 1.4792 ± 0.0022; in series [1] (318.15 K), 1.4772 ± 0.0022. Moreover, the refractive index in series [1] (323.15 K) came to 1.475 ± 0.002; in series [1] (328.15 K), 1.4727 ± 0.0023; in series [1] (333.15 K), 1.4702 ± 0.0023. Further, the viscosity was 153.62 ± 41 mPa·s in series [2] (293.15 K); 99.27 ± 27 mPa·s in series [2] (298.15 K); 71.31 ± 17 mPa·s in series [2] (303.15 K); 52.94 ± 13 mPa·s in series [2] (308.15 K); 37.67 ± 9.1 mPa·s in series [2] (313.15 K); 28.23 ± 6.5 mPa·s in series [2] (318.15 K). In addition, the viscosity in series [2] (323.15 K) is recorded as 21.55 ± 4.9 mPa·s; in series [2] (328.15 K) it was 16.43 ± 3.8 mPa·s; in series [2] (333.15 K) it was 12.74 ± 3 mPa·s.
Consider `CNCCO` [2-(methylamino)ethanol], for which the refractive index is recorded as 1.4386 ± 0.0022 in series [1] (293.15 K); 1.437 ± 0.0022 in series [1] (298.15 K); 1.4352 ± 0.0022 in series [1] (303.15 K); 1.4331 ± 0.0022 in series [1] (308.15 K); 1.431 ± 0.0022 in series [1] (313.15 K); 1.4288 ± 0.0022 in series [1] (318.15 K). The refractive index in series [1] (323.15 K) is 1.4265 ± 0.0023; in series [1] (328.15 K), 1.4242 ± 0.0023; in series [1] (333.15 K), 1.4218 ± 0.0023. Moreover, the viscosity in series [2] (293.15 K) is given as 13.12 ± 2.9 mPa·s; in series [2] (298.15 K), 10.28 ± 2.3 mPa·s; in series [2] (303.15 K), 8.42 ± 1.8 mPa·s; in series [2] (308.15 K), 6.78 ± 1.5 mPa·s; in series [2] (313.15 K), 5.54 ± 1.2 mPa·s; in series [2] (318.15 K) it was 4.61 ± 0.99 mPa·s. Moreover, the results for the viscosity in series [2] (323.15 K), in series [2] (328.15 K) and in series [2] (333.15 K) were 3.82 ± 0.82 mPa·s, 3.13 ± 0.69 mPa·s and 2.42 ± 0.56 mPa·s, respectively.
